US5589510A, “Method for inhibiting retroviral infection by administering a naphthalenesulfonic acid compound” (priority 1995, dated 1996)
Where “and” joins values, the source holds several entries; their conditions need not be identical. Equal entries are not always repeated. Where two headings read alike, the source gives them in different places.

Tests used:
[1] = system: TA98, TA1535, TA1537, TA1538, TA100 and W2P2uvr; experiment: Ames Test (in the presence of S9); assay type: cell-based, Salmonella typhimurium; settings: for Ames Test, specific mutagenic activity: the higher the value, the higher the mutagenicity
Source text: Six Salmonella typhimuriumstrai strains, TA98, TA1535, TA1537, TA1538, TA100 and W2P2uvr were used in this experiment.

[2] = system: HIV-1 RF; experiment: Antiviral assay, Experimental Protocol I (compound added after infection); assay type: cell-based; settings: Human immunodeficiency virus 1, 240 h, p24 ELISA, read-out: % Inhibition (after day 10); for inhibition at 1.25 µg/mL: 1.25 μg/ml; for inhibition at 2.5 µg/mL: 2.5 μg/ml; for inhibition at 5 µg/mL: 5 μg/ml; for inhibition at 0.6 µg/mL: 0.6 μg/ml
Experimental: HIV-1 infectivity studies were conducted in CEM, H9, MT2 cells and peripheral blood mononuclear cells (PBMC). CEM, H9 and MT2 were grown in RPMI1640 medium, 10% heat-inactivated fetal bovine serum (FBS). PBMCs were stimulated with 4 μg/ml PHA for 48 hours in RPMI1640, 10% FBS before HIV-1 infection. After HIV-1 infection, PBMCs were maintained in RPMI 1640, 10% FBS and 10 10 units/ml IL-2. The major HIV-1 isolates used were MN, IIIB, SF2, AZT-sensitive A018 and AZT-resistant A018 provided by NIH AIDS research and reference reagent program. Two major antiviral assays were developed to determine the antiviral activities of the compounds of this invention (as inhibitors).
I. The cells were infected with HIV-1 RF or IIIB at an infectivity multiplicity (moi) of 0.001 in the absence of a compound of this invention for one hour. HIV-1 infected cells were washed once with PBS, resuspended in RPMI1640, 10% FBS medium and distributed in 24-well culture dishes (5×10^5 cells per well) in the presence of a compound of this invention as inhibitor. […]

[3] = system: HIV-1 patient isolate NIH 900285; experiment: Inhibition of HIV-1 patient isolate NIH 900285 in PBMCs; assay type: cell-based; settings: Human immunodeficiency virus 1, PBMC, 288 h, 10% FCS, read-out: % Inhibition (after day 12); for inhibition at 1 µg/mL: 1.0 μg/ml; for inhibition at 2.5 µg/mL: 2.5 μg/ml; for inhibition at 5 µg/mL: 5 μg/ml
Experimental: (§1) The inhibitory effects of additional naphthalenesulfonic acid compounds were tested as follows: Experimental Details:
(§2) PBMCs were activated for 48 hours in conditioned medium containing PHA at a concentration of 4 μg/ml. Thereafter 10^6 cells were plated in each of the 24 well plates containing 10% FCS or 50% FCS. The test compound, previously dissolved in a glucose solution (1 mg/ml), was then added to each of the wells to achieve the appropriate concentration. The plate was then incubated overnight (about 15 hours) after which 50 μl of cell-free HIV-1 patient isolate was added to each well. The plates were incubated for further 6 to 8 hours after which all free floating solution of virus was washed off. Washing was performed four times.
(§3) After removal of the virus, all cultures were resuspended in conditioned medium containing 10% FCS.
(§4) For control experiments virus growth was monitored in either 10% FCS or 50% FCS throughout the observation period (15 days).

[4] = system: reverse transcriptase; settings: literature (Balzarini et al.); cited from earlier work
[5] = biological target: T1, recombinant reverse transcriptase (RT) (Human immunodeficiency virus type 1 group M subtype B, UniProt P04585); experiment: Reverse transcriptase inhibition assay; assay type: biochemical, HIV-1
T1 construct: purchased Worthington Biochemical Corporation
Experimental: Inhibition of recombinant reverse transcriptase (RT) was performed by using commercially available Boehringer Mannheim RT assay kit (Cat. No. 1468 120) based on incorporation of digoxigenin labeled dUTP into DNA. Recombinant enzyme from HIV-1 was purchased from Worthington Biochemical Corporation. The level of anti-RT activity in the sample was determined by measurement of absorbance using an ELISA reader at 405 nm.

[6] = system: HIV-1 patient isolate IH; experiment: Inhibition of HIV-1 patient isolate IH in PBMCs; assay type: cell-based; settings: Human immunodeficiency virus 1, PBMC, 288 h, read-out: % Inhibition (after day 12); for inhibition at 2.5 µg/mL: 2.5 μg/ml; for inhibition at 5 µg/mL: 5 μg/ml; for inhibition at 10 µg/mL: 10 μg/ml; for inhibition at 20 µg/mL: 20 μg/ml
Experimental: as §1
as §2, with “Thereafter 10^6 cells were plated in each of the 24 well plates containing 10% FCS or 50% FCS.” left out
as §3, §4

[7] = LD50, intravenous, mice; assay type: in vivo; settings: mouse, in vivo, female mice, mortalities within 1 week
Experimental: The test material was administered intravenously to 5 female mice in five increasing doses. Mortalities were recorded within 1 week, and the LD50 was determined with the aid of statistical calculations.

[8] = system: HIV-1 RF strain; experiment: SCID mouse model (SCID-hu mice infected with HIV-1); assay type: in vivo
Experimental: Immunodeficient CB-17 SCID (severe combined immunodeficient) mice were reconstituted with human peripheral blood cells (Scid-hu). Two weeks after engraftment, the presence of human IgG indicating the presence of functional T and B cells was confirmed. Four weeks after engraftment, SCID-hu mice were infected with 10^6 tissue culture infectious doses/ml (TCID) of RF strain by ip injection.
Twenty-four hours after infection, 8 infected mice were treated daily with Compound 6 aqueous 5% glucose solution by ip injection at a dose of 50 mg/kg for only five days. The same dose of D-(+)-glucose was injected into SCID hu mice as a control. One month after final ip dose, peritoneal cells from the mice were cocultured with human lymphocytes. After four weeks, cultures were scored for the production of virus by assaying HIV-1 p24 levels in the supernatant. […] On the other hand, 5 of the 8 control mice had cultivated virus.

[9] = system: HIV-1 RF; experiment: Antiviral assay, Experimental Protocol II (virus incubated with compound before cells); assay type: cell-based; settings: Human immunodeficiency virus 1, 240 h, 10% FCS, p24 ELISA, read-out: % Inhibition (after day 10); for inhibition at 1.25 µg/mL: 1.25 μg/ml; for inhibition at 2.5 µg/mL: 2.5 μg/ml; for inhibition at 5 µg/mL: 5 μg/ml
[10] = system: standard Ames Test; settings: literature (K-T. Chung et al); cited from earlier work

For `CCOc1cc(N=Nc2c(S(=O)(=O)O)cc3cc(S(=O)(=O)O)cc(NC(=O)c4cccc(Cl)c4Cl)c3c2O)c(OCC)cc1N=Nc1c(S(=O)(=O)O)cc2cc(S(=O)(=O)O)cc(NC(=O)c3ccc(Cl)cc3Cl)c2c1O` [Compound 28], the “Ames Test result” value [1] was “Negative”, the inhibition at 1.25 µg/mL ([2]; 10% FCS) was 100% and the inhibition at 2.5 µg/mL ([2]; 10% FCS) was 100%. It also gave an inhibition at 5 µg/mL ([2]; 10% FCS) of 100%, an inhibition at 1 µg/mL [3] of 0% and an inhibition at 2.5 µg/mL [3] of 67%. For the same compound, the inhibition at 5 µg/mL [3] was 98%.
For `Cc1cc(NC(=O)Nc2ccc(N=Nc3cc(S(=O)(=O)[O-])c4cccc(S(=O)(=O)[O-])c4c3)c(C)c2)ccc1N=Nc1cc(S(=O)(=O)[O-])c2cccc(S(=O)(=O)[O-])c2c1.[Na+].[Na+].[Na+].[Na+]` [Direct Yellow 50], the “inhibition of reverse transcriptase” value [4] is given as “inhibitors of reverse transcriptase”.
In the case of `COc1cc(N=Nc2c(S(=O)(=O)O)cc3cc(S(=O)(=O)O)cc(NC(=O)c4cccc(Cl)c4Cl)c3c2O)c(OC)cc1N=Nc1c(S(=O)(=O)O)cc2cc(S(=O)(=O)O)cc(NC(=O)c3ccc(Cl)cc3Cl)c2c1O` [Compound 6], the “Ames Test result” value [1] is reported as “Negative”, the inhibition at 0.3 µg/mL ([2]; 10% FCS, 0.3 μg/ml) is reported as 99% and the inhibition at 0.6 µg/mL ([2]; 10% FCS) is reported as 100%. The inhibition at 1.25 µg/mL ([2]; 10% FCS) was 100%, the inhibition at 2.5 µg/mL ([2]; 10% FCS) was 100% and the inhibition at 5 µg/mL ([2]; 10% FCS) was 100%. For the same compound, the inhibition at 0.6 µg/mL ([2]; 50% Human Serum) was 63%, the inhibition at 1.25 µg/mL ([2]; 50% Human Serum) was 64% and the inhibition at 2.5 µg/mL ([2]; 50% Human Serum) was 99%. It also gave an inhibition at 5 µg/mL ([2]; 50% Human Serum) of 100%, an inhibition at 1 µg/mL [3] of 0% and an inhibition at 2.5 µg/mL [3] of 95%. For the same compound, the inhibition at 5 µg/mL [3] was 99%, the inhibition at 0.5 µM [5] was 32% and the inhibition at 5 µM ([5]; at 5.0 μM) was 80%. For the same compound, the inhibition at 2.5 µg/mL ([6]; 10% FCS) was 0%, the inhibition at 5 µg/mL ([6]; 10% FCS) was 91% and the inhibition at 10 µg/mL ([6]; 10% FCS) was 82%. The inhibition at 20 µg/mL ([6]; 10% FCS) was 100%, the inhibition at 2.5 µg/mL ([6]; 50% Human Serum) was 13% and the inhibition at 5 µg/mL ([6]; 50% Human Serum) was 80%. It also gave an inhibition at 10 µg/mL ([6]; 50% Human Serum) of 90%, an inhibition at 20 µg/mL ([6]; 50% Human Serum) of 100% and an LD50 at 168 h [7] of 130 mg/kg. The “detectable HIV specific p24 in mice” value ([8]; SCID-hu mice, 50 mg/kg ip daily for five days) was “none of the 8 mice receiving Compound 6 had any detectable HIV specific p24 above the background of the no virus control”, the “P24 Day 28” value ([8]; SCID-hu mice, 50 mg/kg ip daily for five days, one value per mouse, coculture supernatant, 50 mg/kg) was 46.36 pg/mL and 35.44 pg/mL and 32.61 pg/mL and 40.90 pg/mL and 34.41 pg/mL and 34.36 pg/mL and 49.46 pg/mL and 58.02 pg/mL and the “prevention of infection of reconstituted human immune cells” value ([8]; treatment for 5 days) was “sufficient to prevent infection of reconstituted human immune cells in an animal model”.
For `CCCCCCC(=O)Nc1cc(S(=O)(=O)O)cc2cc(S(=O)(=O)O)c(N=Nc3cc(OC)c(N=Nc4c(S(=O)(=O)O)cc5cc(S(=O)(=O)O)cc(NC(=O)Cc6ccccc6)c5c4O)cc3OC)c(O)c12` [Compound 17], the “Ames Test result” value [1] was “Negative”, the inhibition at 1.25 µg/mL [9] was 72% and the inhibition at 2.5 µg/mL [9] was 98%. The inhibition at 5 µg/mL [9] was 100% and the LD50 at 168 h [7] was 130 mg/kg.
With `COc1cc(N=Nc2c(S(=O)(=O)O)cc3cc(S(=O)(=O)O)cc(NC(=O)c4cc(Cl)cc(Cl)c4)c3c2O)c(OC)cc1N=Nc1c(S(=O)(=O)O)cc2cc(S(=O)(=O)O)cc(NC(=O)Cc3ccccc3)c2c1O` [Compound 14] the “Ames Test result” value [1] was “Positive”, the “Ames Test, specific mutagenic activity” value [1] was 0.12 colony no/μg and the inhibition at 1.25 µg/mL [9] was 50%. For the same compound, the inhibition at 2.5 µg/mL [9] was 56%, the inhibition at 5 µg/mL [9] was 98% and the LD50 at 168 h [7] was 160 mg/kg.
In the case of `Cc1ccc(C(=O)Nc2ccc(S(=O)(=O)O)c3cc(S(=O)(=O)O)cc(S(=O)(=O)O)c23)cc1NC(=O)c1cccc(NC(=O)Nc2cccc(C(=O)Nc3cc(C(=O)Nc4ccc(S(=O)(=O)O)c5cc(S(=O)(=O)O)cc(S(=O)(=O)O)c45)ccc3C)c2)c1` [Suramin, reference compound], the “inhibition of reverse transcriptase” value [4] is given as “inhibitors of reverse transcriptase”, the inhibition at 1.25 µg/mL ([2]; 10% FCS) is given as 0% and the inhibition at 2.5 µg/mL ([2]; 10% FCS) is given as 0%. For the same compound, the inhibition at 5 µg/mL ([2]; 10% FCS) was 0%, the “inhibitory effect against reverse transcriptase (in words)” value [5] was “inhibitory effect against reverse transcriptase” and the inhibition at 0.5 µM [5] was 68%. It also gave an LD50 at 168 h [7] of 40 mg/kg.
For `COc1cc(-c2ccc(/N=N/c3ccc4c(S(=O)(=O)O)cc(S(=O)(=O)O)c(N)c4c3O)c(OC)c2)ccc1/N=N/c1ccc2c(S(=O)(=O)O)cc(S(=O)(=O)O)c(N)c2c1O` [CSB, Chicago Sky Blue, reference compound], the “Ames Test result” value [1] was “Positive”, the “Ames Test, specific mutagenic activity” value [1] was 10 colony no/μg and the inhibition at 0.6 µg/mL ([2]; 10% FCS) was 37%. For the same compound, the inhibition at 1.25 µg/mL ([2]; 10% FCS) was 70%, the inhibition at 2.5 µg/mL ([2]; 10% FCS) was 90% and the “inhibitory effect against reverse transcriptase (in words)” value [5] was “inhibitory effect against reverse transcriptase”. The “mutagenic effects in Ames Test” value [10] was “strong mutagenic effects” and the LD50 at 168 h [7] was 100 mg/kg.
